Data: patent US8710232B2, “Imidazole derivatives used as TAFIa inhibitors” (Sanofi-Aventis Deutschland GmbH, priority 2004, dated 2014)

Biological target: TAFIa (Homo sapiens (Human), UniProt Q96IY4)
Experiment: TAFIa enzyme assay (Actichrome plasma TAFI activity kit)
Format: biochemical
Conditions: 15 min preincubation at room temperature, read at 420 nm, duplicate determination
Procedure: The prepared substances were tested for TAFIa inhibition using the Actichrome plasma TAFI activity kit from American Diagnostica (Pr. No. 874). This entailed adding 29 μl of assay buffer (20 mM Hepes, 150 mM NaCl, pH 7.4) and 10 μl of TAFIa (American Diagnostica Pr. No. 874TAFIA; […]) to 1 μl of 5 mM DMSO solution of the substance and incubating in a 96 half-well microtiter plate at room temperature for 15 minutes. The enzymic reaction was started by adding 10 μl of TAFIa developer (prediluted 1:2 with water). The time course of the reaction was followed at 420 nm in a microtiter plate reader (SpectraMax plus 384; Molecular Devices) for 15 minutes. The IC50 was calculated from the averaged values (duplicate determination) of serial dilutions of the substance with the aid of the Grafit 4 software (Erithacus Software, UK).

Chain of TAFIa (Q96IY4 115-423): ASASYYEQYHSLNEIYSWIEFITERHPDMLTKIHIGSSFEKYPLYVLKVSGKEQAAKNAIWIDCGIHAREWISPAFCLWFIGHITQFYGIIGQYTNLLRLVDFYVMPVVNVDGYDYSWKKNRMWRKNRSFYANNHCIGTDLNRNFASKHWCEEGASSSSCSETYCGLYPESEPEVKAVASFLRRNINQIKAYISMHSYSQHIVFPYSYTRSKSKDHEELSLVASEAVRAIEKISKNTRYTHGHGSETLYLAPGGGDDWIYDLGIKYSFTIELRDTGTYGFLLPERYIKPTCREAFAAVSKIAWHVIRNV

SMILES	IC50 [nM]
Nc1ccc(CC(C(=O)O)c2cn(C3CCCCC3)cn2)cn1 (stereo not drawn) [Example 1, 3-(6-Aminopyridin-3-yl)-2-(1-cyclohexyl-1H-imidazol-4-yl)propionic acid]	30
Nc1ccc(CC(C(=O)O)c2cn(Cc3cccc(Oc4ccc(F)cc4)c3)cn2)cn1 (stereo not drawn) [Example 28, 3-(6-Aminopyridin-3-yl)-2-{1-[3-(4-fluorophenoxy)benzyl]-1H-imidazol-4-yl}propionic acid]	1440
Nc1ccc(CC(C(=O)O)c2cn(C3CCN(c4ccccc4)C3=O)cn2)cn1 (stereo not drawn) [Example 9, 3-(6-Aminopyridin-3-yl)-2-[1-(2-oxo-1-phenylpyrrolidin-3-yl)-1H-imidazol-4-yl]propionic acid]	439
Nc1ccc(CC(C(=O)O)c2cn(CCC3CCCN(C(=O)CCc4ccccc4)C3)cn2)cn1 (stereo not drawn) [Example 16, 3-(6-Aminopyridin-3-yl)-2-(1-{2-[1-(3-phenylpropionyl)piperidin-3-yl]ethyl}-1H-imidazol-4-yl)propionic acid]	38
Nc1ccc(CC(C(=O)O)c2cn(CC3CCCN(C(=O)C(c4ccccc4)c4ccccc4)C3)cn2)cn1 (stereo not drawn) [Example 17, 3-(6-Aminopyridin-3-yl)-2-[1-(1-diphenylacetylpiperidin-3-ylmethyl)-1H-imidazol-4-yl]-propionic acid]	11
Nc1ccc(CC(C(=O)O)c2cn(C3CCNCC3)cn2)cn1 (stereo not drawn) [Example 8, 3-(6-Aminopyridin-3-yl)-2-(1-piperidin-4-yl-1H-imidazol-4-yl)propionic acid]	1130
Nc1ccc(CC(C(=O)O)c2cn(-c3ccc(NC(=O)Nc4ccccc4)cc3)cn2)cn1 (stereo not drawn) [Example 12, 3-(6-Aminopyridin-3-yl)-2-{1-[4-(3-phenylureido)phenyl]-1H-imidazol-4-yl}propionic acid]	15
Nc1ccc(CC(C(=O)O)c2cn(Cc3csc4ccc(Cl)cc34)cn2)cn1 (stereo not drawn) [Example 27, 3-(6-Aminopyridin-3-yl)-2-[1-(5-chlorobenzo[b]thiophen-3-ylmethyl)-1H-imidazol-4-yl]-propionic acid]	1110
C#CCn1cnc(C(Cc2ccc(N)nc2)C(=O)O)c1 (stereo not drawn) [Example 31, 3-(6-Aminopyridin-3-yl)-2-(1-prop-2-ynyl-1H-imidazol-4-yl)propionic acid]	870
Nc1ccc(CC(C(=O)O)c2cn(CC3CCCCN3C(=O)c3ccccc3)cn2)cn1 (stereo not drawn) [Example 15, 3-(6-Aminopyridin-3-yl)-2-[1-(1-benzoylpiperidin-2-ylmethyl)-1H-imidazol-4-yl]propionic acid]	12
CC1(C)CCC(n2cnc(C(Cc3ccc(N)nc3)C(=O)O)c2)CC1 (stereo not drawn) [Example 33, 3-(6-Aminopyridin-3-yl)-2-[1-(4,4-dimethylcyclohexyl)-1H-imidazol-4-yl]propionic acid]	3
Cc1ccc(S(=O)(=O)Nc2ccc(-n3cnc(C(Cc4ccc(N)nc4)C(=O)O)c3)cc2)cc1 (stereo not drawn) [Example 38]	50
Nc1ccc(CC(C(=O)O)c2cn(Cc3ccc(OC(F)(F)F)cc3)cn2)cn1 (stereo not drawn) [Example 25, 3-(6-Aminopyridin-3-yl)-2-[1-(4-trifluoromethoxybenzyl)-1H-imidazol-4-yl]propionic acid]	10500
CCCNC(=O)Nc1ccc(-n2cnc(C(Cc3ccc(N)nc3)C(=O)O)c2)cc1 (stereo not drawn) [Example 37, 3-(6-Aminopyridin-3-yl)-2-{1-[4-(3-propylureido)phenyl]-1H-imidazol-4-yl}propionic acid]	49
Nc1ccc(CC(C(=O)O)c2cn(CCC3CCN(C(=O)CCc4ccccc4)CC3)cn2)cn1 (stereo not drawn) [Example 18, 3-(6-Aminopyridin-3-yl)-2-(1-{2-[1-(3-phenylpropionyl)piperidin-4-yl]ethyl}1H-imidazol-4-yl)propionic acid]	21
Nc1ccc(CC(C(=O)O)c2cn(CCC3CCN(C(=O)C(c4ccccc4)c4ccccc4)CC3)cn2)cn1 (stereo not drawn) [Example 13, 3-(6-Aminopyridin-3-yl)-2-{1-[2-(1-diphenylacetylpiperidin-4-yl)ethyl]-1H-imidazol-4-yl}-propionic acid]	12
Nc1ccc(CC(C(=O)O)c2cn(C3CCCC3)cn2)cn1 (stereo not drawn) [Example 7, 3-(6-Aminopyridin-3-yl)-2-(1-cyclopentyl-1H-imidazol-4-yl)propionic acid]	16
Nc1ccc(CC(C(=O)O)c2cn(CC(=O)NC(c3ccccc3)c3ccccc3)cn2)cn1 (stereo not drawn) [Example 10, 3-(6-Aminopyridin-3-yl)-2-{1-[(benzhydrylcarbamoyl)methyl]-1H-imidazol-4-yl}-propionic acid]	23
